According to US9096544B2, “Therapeutic compounds” (Wayne State University, priority 2009, dated 2015):
Values after ≈ are worked out from the molar mass of the structure shown. Where two headings read alike, the source gives them in different places.

What was measured:
caspase-3 = assay: Caspase-3 activation and cleavage in AML cells; format: cell-based; settings: FFMA-AML and TF(vSRC) cells; 1 μM; lysates
Method: FIG. 4 illustrates 3-Cl-AHPC and compound 16-mediated caspase-3 activation and cleavage of caspase-3. A) Activation of caspase-3 in FFMA-AML and TF(vSRC) cells following exposure to 1 μM 3-Cl-AHPC and compound 16 for varying times. B) Generation of the caspase-3 (17 kDa) fragment and caspase-3 protein levels (α-tubulin used as loading control). Columns represent mean of three independent experiments. […] (p value is <0.01 as determined by t test).
To further document 3-Cl-AHPC and compound 16-mediated apoptosis in the FFMA-AML and TF(v-SRC) cells, cells were exposed to 1 μM 3-Cl-AHPC or compound 16 for varying times, and then annexin V-FITC binding assessed using flow cytometry.

[1] = Test H: aqueous solubility by UV absorbance; format: physicochemical; settings: for solubility: 22° C.
Method: Standard curves at the UV λmax (330, 350 and 345 nm for 3-Cl-AHPC, 18 and 16, respectively) were generated using 0.245, 0.163, 0.049 and 0.025 mM 3-Cl-AHPC and 0.380, 0.178, 0.053 and 0.027 mM 18 and 16, which were prepared from 1.0% (wt/vol) solutions of compounds in Me2SO. […] Measurements for maximum solubilities in distilled water (pH 5) and phosphate-buffered saline (PBS, pH 7.2) at 22° C. were made by UV absorbance using solutions obtained after saturation at higher temperatures, overnight incubation at 22° C., and centrifugation to remove undissolved material.

Capan-2 cells = assay: Test I: apoptosis of Capan-2 pancreatic cancer cells (Annexin V-FITC/PI); format: cell-based; settings: 1 μM, 48 h
Method: (§1) Pancreatic cancer cell lines (COLO357, PANC-1, Capan-2, AsPc-1 cells and MiaPaCa-2 cells obtained from American Type Culture Collection; ATCC, Rockville, Md.) were treated with 1 μM 3-Cl-AHPC and compound 16 for various times. Apoptosis in cells were analyzed by flow cytometry using Annexin V-FITC binding together with propidium iodide (PI) staining (Annexin V-FITC apoptosis Detection Kit 1, BD Biosciences, San Diego, Calif.). Data acquisition was done on a FACS Calibur flow cytometer (BD) and analyzed with CellQuest software (BD Biosciences). 3-Cl-AHPC and compound 16 mediated inhibition of cell growth were determined by 3-(4,5-dimethylthiazol-2-yl)-2,5-diphenyltetrazolium bromide (MTT) assay. The cells were seeded on 96-well plates at a density of 4×10^4 cells/well in a volume of 200 μl culture medium. 1 μM AHP3 and 3-Cl-AHPC in DMSO (final concentration 0.1%) were added to the cells for various times. […] After discarding the medium, MTT precipitates were solubilized with 200 μl DMSO and the plates read on a BioTeK Synergy HT (BioTeK Instrument Inc., Vermont) at an absorbance 570 nm. […] The spheroids were stained with acridine orange/ethidium bromide staining and immediately visualized and photographed with fluorescence microscope (OLYMPUS CKX41). […] Then spheroids were visualized and photographed with a fluorescence microscope.

PANC-1 cells = assay: Test I: growth inhibition of PANC-1 cells (MTT); format: cell-based; settings: 1 μM
Method: as §1

[2] = test system: pancreatic cancer stem cells (CD44+/CD24+ cells obtained from PANC-1, Capan-2 and MiaPaCa-2 cells); assay: Test J: spheroid formation by CD44+/CD24+ pancreatic cancer stem cells; format: cell-based
Method: Apoptosis and Growth Inhibition of Pancreatic Cancer Stem Cells (Obtained from PANC-1, Capan-2 and MiaPaCa-2 Cells) by Compound 16 and 3-Cl-AHPC.
Cells were grown to 70-80% confluence and then trypsinised and washed with sorting buffer (1×PBS, 5% FCS). The cells were resuspended with […] sorting buffer and incubated with 15-20 μl anti-CD24-FITC, anti-CD44-PE primary antibodies for 30 min at ice. The cells were washed and resuspended in 500 μl of sorting buffer and sorted using FACSAria system (BD Immunocytochemistry Systems, Franklin lakes, NJ).
The sorted CD44^+/CD24^+ cells were suspended in serum-free stem cell medium containing DMEM/F12 (1:1) supplemented with B27 (Life Technologies, Gaithersburg, Md.), 20 ng/ml EGF (Biomol International, Plymouth, Pa.)), 20 ng/ml fibroblast growth factor (Biomol International, Plymouth, Pa.), and 100 μg/ml gentamycin. Approximately 150-200 cells per well were seeded in an ultra low-attachment 96-well plate (Corning Inc, Lowell, Mass.). 3-Cl-AHPC and compound 16 were added the day after cells were plated or after 7 days of spheroid formation. Spheriods were photographed and measured utilizing a Olympus microscope (OLYMPUS CKX41) and Olympus microscope digital camera with DP2-BSW software (Olympus soft imaging solutions GmbH, Germany).

Compound	caspase-3 activation (17-kDa cleaved caspase-3, caspase-3 activity) (caspase-3)	Solubility (μM) at 22° C. PBS (pH 7.2) ([1]; PBS pH 7.2)	solubility ([1]; thermodynamic from solid, distilled water pH 5, read-out: Solubility (μM) at 22° C. Distilled water (pH 5)) [µM]	cells in which induction of apoptosis was noted (Capan-2 cells) [%]	inhibition of growth (PANC-1 cells)	spheroid formation by CD24+/CD44+ cells [2]	solubility ([1]; distilled water pH 5, read-out: Solubility (μM) at 22° C. Distilled water (pH 5)) [µM]	solubility ([1]; phosphate-buffered saline, aqueous buffer, thermodynamic from solid, PBS pH 7.2, read-out: Solubility (μM) at 22° C. PBS (pH 7.2)) [µM]
O=C(O)C=Cc1ccc(-c2ccc(O)c(C34CC5CC(CC(C5)C3)C4)c2)c(Cl)c1 [Compound 3-Cl-AHPC, 4-[3-(1-adamantyl)-4-hydroxyphenyl]-3-chlorocinnamic acid, reference compound]	induced caspase-3 activation	Not detectable	4.5 (≈ 1.84 µg/mL)	50	significant inhibition of growth	inhibited their ability to form spheroids		
O=C(O)/C=C/c1cnc(-c2ccc(O)c(C34CC5CC(CC(C5)C3)C4)c2)nc1 [Compound 16, (E)-3-[2-(3-(1-Adamantyl)-4-hydroxyphenyl)-5-pyrimidinyl]-2-propenoic acid]	induced caspase-3 activation			50	significant inhibition of growth	inhibited their ability to form spheroids	54 (≈ 20.3 µg/mL)	440 (≈ 166 µg/mL)
